According to patent US9499550B2 (BRISTOL-MYERS SQUIBB COMPANY, priority 2012, dated 2016):

What was measured:
[1] = tested on: HCV genotype 1a (H77 strain) replicon in HUH-7 cells; test: HCV replicon luciferase reporter assay, genotype 1a; assay type: cell-based; conditions: Hepatitis C virus, Huh-7, 72 h, HCV genotype 1a replicon luciferase, 3 days incubation, read-out: LE_1a (EC50, range)
How it was run: (§1)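 Replicon inhibition for both genotypes was measured as Renilla luciferase signal (EnduRen, 7.5 μM final, 2 h) after 3-day, 37° C exposure of replicon-bearing HUH-7 cells in 4% FCS DMEM, 0.5% DMSO. The 1b construct carries S1179I; the 1a H77 construct carries P1496L and S2204I. Twenty-point, 3-fold dilutions were fitted four-parametrically for EC50, and CC50 was taken from multiplexed Cell Titer-Blue.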

[2] = tested on: HCV genotype 1b (Con1) replicon in HUH-7 cells; test: HCV replicon luciferase reporter assay, genotype 1b; assay type: cell-based; conditions: Hepatitis C virus, Huh-7, 72 h, HCV genotype 1b replicon luciferase, 3 days incubation, read-out: LE_1b (EC50, range)
How it was run: as §1

| Compound | EC50 [1] [nM] | EC50 [2] [nM] |
| --- | --- | --- |
| COc1ccc2c(O[C@@H]3C[C@H]4C(=O)N[C@]5(C(=O)NS(=O)(=O)C6CC6)C[C@H]5/C=C\CC[C@H](C)C[C@@H](C)[C@H](NC(=O)NC(C)(C)C)C(=O)N4C3)nc(-c3ccc(OC(C)C)nc3)cc2c1 [Compound 5220, (2R,6S,7R,9S,13aS,14aR,16aS,Z)-6-(3-(tert-butyl)ureido)-N-(cyclopropylsulfonyl)-2-((3-(6-isopropoxypyridin-3-yl)-6-methoxyisoquinolin-1-yl)oxy)-7,9-dimethyl-5,16-dioxo-1,2,3,5,6,7,8,9,10,11,13a,14,14a,15,16,16a-hexadecahydrocyclopropa[e]pyrrolo[1,2-a][1,4]diazacyclopentadecine-14a-carboxamide] | < 5.46 | < 5.46 |
| COc1ccc2c(O[C@@H]3C[C@H]4C(=O)N[C@]5(C(=O)NS(=O)(=O)C6CC6)C[C@H]5/C=C\CC[C@@H](C)C[C@@H](C)[C@H](NC(=O)NC(C)(C)C)C(=O)N4C3)nc(-c3ccc(OC(C)C)nc3)cc2c1 [Compound 5221, (2R,6S,7R,9R,13aS,14aR,16aS,Z)-6-(3-(tert-butyl)ureido)-N-(cyclopropylsulfonyl)-2-((3-(6-isopropoxypyridin-3-yl)-6-methoxyisoquinolin-1-yl)oxy)-7,9-dimethyl-5,16-dioxo-1,2,3,5,6,7,8,9,10,11,13a,14,14a,15,16,16a-hexadecahydrocyclopropa[e]pyrrolo[1,2-a][1,4]diazacyclopentadecine-14a-carboxamide] | < 5.46 | < 5.46 |
| COc1ccc2c(O[C@@H]3C[C@H]4C(=O)N[C@]5(C(=O)NS(=O)(=O)C6(C)CC6)C[C@H]5/C=C\CC[C@H](C)C[C@@H](C)[C@H](NC(=O)OC(C)(C)C)C(=O)N4C3)nc(-c3ccc(OC(C)C)nc3)cc2c1 [Compound 5222, tert-butyl ((2R,6S,7R,9S,13aS,14aR,16aS,Z)-2-((3-(6-isopropoxypyridin-3-yl)-6-methoxyisoquinolin-1-yl)oxy)-7,9-dimethyl-14a-(((1-methylcyclopropyl)sulfonyl)carbamoyl)-5,16-dioxo-1,2,3,5,6,7,8,9,10,11,13a,14,14a,15,16,16a-hexadecahydrocyclopropa[e]pyrrolo[1,2-a][1,4]diazacyclopentadecin-6-yl)carbamate] | 4.82 to 103 | < 5.46 |
| COc1ccc2c(O[C@@H]3C[C@H]4C(=O)N[C@]5(C(=O)NS(=O)(=O)C6(C)CC6)C[C@H]5/C=C\CC[C@@H](C)C[C@@H](C)[C@H](NC(=O)OC(C)(C)C)C(=O)N4C3)nc(-c3ccc(OC(C)C)nc3)cc2c1 [Compound 5223, tert-butyl ((2R,6S,7R,9R,13aS,14aR,16aS,Z)-2-((3-(6-isopropoxypyridin-3-yl)-6-methoxyisoquinolin-1-yl)oxy)-7,9-dimethyl-14a-(((1-methylcyclopropyl)sulfonyl)carbamoyl)-5,16-dioxo-1,2,3,5,6,7,8,9,10,11,13a,14,14a,15,16,16a-hexadecahydrocyclopropa[e]pyrrolo[1,2-a][1,4]diazacyclopentadecin-6-yl)carbamate] | < 5.46 | < 5.46 |
| COc1ccc2c(O[C@@H]3C[C@H]4C(=O)N[C@]5(C(=O)NS(=O)(=O)C6(C)CC6)C[C@H]5/C=C\CC[C@H](C)C[C@@H](C)[C@H](NC(=O)OC(C)(C)C(F)(F)F)C(=O)N4C3)nc(-c3ccc(OC(C)C)nc3)cc2c1 [Compound 5224, 1,1,1-trifluoro-2-methylpropan-2-yl((2R,6S,7R,9S,13aS,14aR,16aS,Z)-2-((3-(6-isopropoxypyridin-3-yl)-6-methoxyisoquinolin-1-yl)oxy)-7,9-dimethyl-14a-(((1-methylcyclopropyl)sulfonyl)carbamoyl)-5,16-dioxo-1,2,3,5,6,7,8,9,10,11,13a,14,14a,15,16,16a-hexadecahydrocyclopropa[e]pyrrolo[1,2-a][1,4]diazacyclopentadecin-6-yl)carbamate] | 4.82 to 103 | 4.82 to 103 |
| COc1ccc2c(O[C@@H]3C[C@H]4C(=O)N[C@]5(C(=O)NS(=O)(=O)C6(C)CC6)C[C@H]5/C=C\CC[C@@H](C)C[C@@H](C)[C@H](NC(=O)OC(C)(C)C(F)(F)F)C(=O)N4C3)nc(-c3ccc(OC(C)C)nc3)cc2c1 [Compound 5225, 1,1,1-trifluoro-2-methylpropan-2-yl((2R,6S,7R,9R,13aS,14aR,16aS,Z)-2-((3-(6-isopropoxypyridin-3-yl)-6-methoxyisoquinolin-1-yl)oxy)-7,9-dimethyl-14a-(((1-methylcyclopropyl)sulfonyl)carbamoyl)-5,16-dioxo-1,2,3,5,6,7,8,9,10,11,13a,14,14a,15,16,16a-hexadecahydrocyclopropa[e]pyrrolo[1,2-a][1,4]diazacyclopentadecin-6-yl)carbamate] | < 5.46 | < 5.46 |
| [2H]C([2H])([2H])C(OC(=O)N[C@@H]1C(=O)N2C[C@H](Oc3nc(-c4ccc(OC(C)C)nc4)cc4cc(OC)ccc34)C[C@H]2C(=O)N[C@]2(C(=O)NS(=O)(=O)C3(C)CC3)C[C@H]2/C=C\CC[C@H](C)C[C@H]1C)(C([2H])([2H])[2H])C(F)(F)F [Compound 5226, 1,1,1,3,3,3-hexadeutero-2-(trifluoromethyl)propan-2-yl((2R,6S,7R,9S,13aS,14aR,16aS,Z)-2-((3-(6-isopropoxypyridin-3-yl)-6-methoxyisoquinolin-1-yl)oxy)-7,9-dimethyl-14a-(((1-methylcyclopropyl)sulfonyl)carbamoyl)-5,16-dioxo-1,2,3,5,6,7,8,9,10,11,13a,14,14a,15,16,16a-hexadecahydrocyclopropa[e]pyrrolo[1,2-a][1,4]diazacyclopentadecin-6-yl)carbamate] | 4.82 to 103 | 4.82 to 103 |
| [2H]C([2H])([2H])C(OC(=O)N[C@@H]1C(=O)N2C[C@H](Oc3nc(-c4ccc(OC(C)C)nc4)cc4cc(OC)ccc34)C[C@H]2C(=O)N[C@]2(C(=O)NS(=O)(=O)C3(C)CC3)C[C@H]2/C=C\CC[C@@H](C)C[C@H]1C)(C([2H])([2H])[2H])C(F)(F)F [Compound 5227, 1,1,1,3,3,3-hexadeutero-2-(trifluoromethyl)propan-2-yl((2R,6S,7R,9R,13aS,14aR,16aS,Z)-2-((3-(6-isopropoxypyridin-3-yl)-6-methoxyisoquinolin-1-yl)oxy)-7,9-dimethyl-14a-(((1-methylcyclopropyl)sulfonyl)carbamoyl)-5,16-dioxo-1,2,3,5,6,7,8,9,10,11,13a,14,14a,15,16,16a-hexadecahydrocyclopropa[e]pyrrolo[1,2-a][1,4]diazacyclopentadecin-6-yl)carbamate] | < 5.46 | < 5.46 |
| COc1ccc2c(O[C@@H]3C[C@H]4C(=O)N[C@]5(C(=O)NS(=O)(=O)C6(C)CC6)C[C@H]5/C=C\CC[C@H](C)C[C@@H](C)[C@H](NC(=O)OC5C[C@@H]6C[C@@H]6C5)C(=O)N4C3)nc(-c3ccc(OC(C)C)nc3)cc2c1 (stereo partly drawn) [Compound 5228, (1R,3r,5S)-bicyclo[3.1.0]hexan-3-yl((2R,6S,7R,9S,13aS,14aR,16aS,Z)-2-((3-(6-isopropoxypyridin-3-yl)-6-methoxyisoquinolin-1-yl)oxy)-7,9-dimethyl-14a-(((1-methylcyclopropyl)sulfonyl)carbamoyl)-5,16-dioxo-1,2,3,5,6,7,8,9,10,11,13a,14,14a,15,16,16a-hexadecahydrocyclopropa[e]pyrrolo[1,2-a][1,4]diazacyclopentadecin-6-yl)carbamate] | 4.82 to 103 | < 5.46 |
| COc1ccc2c(O[C@@H]3C[C@H]4C(=O)N[C@]5(C(=O)NS(=O)(=O)C6(C)CC6)C[C@H]5/C=C\CC[C@@H](C)C[C@@H](C)[C@H](NC(=O)OC5C[C@@H]6C[C@@H]6C5)C(=O)N4C3)nc(-c3ccc(OC(C)C)nc3)cc2c1 (stereo partly drawn) [Compound 5229, (1R,3r,5S)-bicyclo[3.1.0]hexan-3-yl((2R,6S,7R,9R,13aS,14aR,16aS,Z)-2-((3-(6-isopropoxypyridin-3-yl)-6-methoxyisoquinolin-1-yl)oxy)-7,9-dimethyl-14a-(((1-methylcyclopropyl)sulfonyl)carbamoyl)-5,16-dioxo-1,2,3,5,6,7,8,9,10,11,13a,14,14a,15,16,16a-hexadecahydrocyclopropa[e]pyrrolo[1,2-a][1,4]diazacyclopentadecin-6-yl)carbamate] | < 5.46 | < 5.46 |
| COc1ccc2c(O[C@@H]3C[C@H]4C(=O)N[C@]5(C(=O)NS(=O)(=O)C6(C)CC6)C[C@H]5/C=C\CC[C@H](C)C[C@@H](C)[C@H](NC(=O)NC(C)(C)C)C(=O)N4C3)nc(-c3ccc(OC(C)C)nc3)cc2c1 [Compound 5230, (2R,6S,7R,9S,13aS,14aR,16aS,Z)-6-(3-(tert-butyl)ureido)-2-((3-(6-isopropoxypyridin-3-yl)-6-methoxyisoquinolin-1-yl)oxy)-7,9-dimethyl-N-((1-methylcyclopropyl)sulfonyl)-5,16-dioxo-1,2,3,5,6,7,8,9,10,11,13a,14,14a,15,16,16a-hexadecahydrocyclopropa[e]pyrrolo[1,2-a][1,4]diazacyclopentadecine-14a-carboxamide] | 4.82 to 103 | < 5.46 |
| COc1ccc2c(O[C@@H]3C[C@H]4C(=O)N[C@]5(C(=O)NS(=O)(=O)C6(C)CC6)C[C@H]5/C=C\CC[C@@H](C)C[C@@H](C)[C@H](NC(=O)NC(C)(C)C)C(=O)N4C3)nc(-c3ccc(OC(C)C)nc3)cc2c1 [Compound 5231, (2R,6S,7R,9R,13aS,14aR,16aS,Z)-6-(3-(tert-butyl)ureido)-2-((3-(6-isopropoxypyridin-3-yl)-6-methoxyisoquinolin-1-yl)oxy)-7,9-dimethyl-N-((1-methylcyclopropyl)sulfonyl)-5,16-dioxo-1,2,3,5,6,7,8,9,10,11,13a,14,14a,15,16,16a-hexadecahydrocyclopropa[e]pyrrolo[1,2-a][1,4]diazacyclopentadecine-14a-carboxamide] | < 5.46 | < 5.46 |
